Measurements taken from patent US5210193A, “Piperazine derivatives” (American Cyanamid Company, priority 1990, dated 1993).
Values after ≈ are worked out from the molar mass of the structure shown. Like-named read-outs stand apart in the source and are kept apart here.

Experiments:
Assay in all cases: in vitro antibacterial MIC, agar plate dilution
Format in all cases: cell-based
[1] = tested on: Enterobacter aerogenes VGH 84-36; conditions: Klebsiella aerogenes, VGH8436, 18 hours, 35° C., read-out: MIC
Procedure, shortened: (§1)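 MIC, mcg/ml: lowest concentration with no visible growth after 18 h incubation at 35° C. Mueller-Hinton agar dilution plates; ~10^4 CFU inoculum via Steers replicating device.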

[2] = tested on: Enterobacter cloacae K 84-10; conditions: Enterobacter cloacae, K8410, 18 h, 35° C., read-out: MIC
Procedure, shortened: as §1

[3] = tested on: Enterobacter cloacae VGH 84-37; conditions: Enterobacter cloacae, VGH8437, 18 h, 35° C., read-out: MIC
Procedure, shortened: as §1

[4] = tested on: Escherichia coli ATCC 25922; conditions: 35° C.
Procedure, shortened: as §1

[5] = tested on: Escherichia coli CMC 84-11; conditions: 35° C.
Procedure, shortened: as §1

[6] = tested on: Escherichia coli CMC 84-16; conditions: Escherichia coli, CMC8416, 18 h, 35° C., read-out: MIC
Procedure, shortened: as §1

Escherichia coli NAR 311 = conditions: NAR311, 18 hours, 35° C., read-out: MIC
Procedure, shortened: as §1

[7] = tested on: Escherichia coli PRNT 311; conditions: PRNT311, 18 hours, 35° C., read-out: MIC
Procedure, shortened: as §1

[8] = tested on: Klebsiella oxytoca MOR 84-28; conditions: MOR8428, 18 hours, 35° C.
Procedure, shortened: as §1

Klebsiella pneumoniae AD = conditions: Klebsiella pneumoniae, 18 h, 35° C., read-out: MIC
Procedure, shortened: as §1

[9] = tested on: Klebsiella pneumoniae MOR 84-4; conditions: Klebsiella pneumoniae, MOR844, 18 h, 35° C., read-out: MIC
Procedure, shortened: as §1

[10] = tested on: Morganella morganii CMC 84-37; conditions: 35° C.
Procedure, shortened: as §1

[11] = tested on: Morganella morganii VGH 84-11; conditions: VGH8411, 18 hours, 35° C., read-out: MIC
Procedure, shortened: as §1

[12] = tested on: Proteus rettgeri CMC 84-41; conditions: Providencia rettgeri, CMC8441, 18 h, 35° C., read-out: MIC
Procedure, shortened: as §1

[13] = tested on: Pseudomonas aeruginosa LL-1244; conditions: 35° C.
Procedure, shortened: as §1

[14] = tested on: Pseudomonas aeruginosa VGH 84-4; conditions: 35° C.
Procedure, shortened: as §1

[15] = tested on: Serratia marcescens F 0-35; conditions: Serratia marcescens, F035, 18 h, 35° C., read-out: MIC
Procedure, shortened: as §1

[16] = tested on: Serratia marcescens K 84-18; conditions: 35° C.
Procedure, shortened: as §1

[17] = tested on: Staphylococcus Spp saprophiticus VGH 84-50; conditions: 18 hours, 35° C., read-out: MIC
Procedure, shortened: as §1

[18] = tested on: Staphylococcus aureus ATTC 29213; conditions: 35° C.
Procedure, shortened: as §1

[19] = tested on: Staphylococcus aureus CMC 83-127; conditions: Staphylococcus aureus, CMC83127, 18 h, 35° C., read-out: MIC
Procedure, shortened: as §1

[20] = tested on: Staphylococcus aureus CMC 83-128; conditions: CMC83128, 18 hours, 35° C., read-out: MIC
Procedure, shortened: as §1

[21] = tested on: Staphylococcus aureus Smith; conditions: 35° C.
Procedure, shortened: as §1

[22] = tested on: Staphylococcus aureus VGH 84-45; conditions: 35° C.
Procedure, shortened: as §1

[23] = tested on: Staphylococcus aureus VGH 84-46; conditions: Staphylococcus aureus, VGH8446, 18 h, 35° C., read-out: MIC
Procedure, shortened: as §1

[24] = tested on: Staphylococcus epidermidis CMC 83-135; conditions: CMC83135, 18 hours, 35° C., read-out: MIC
Procedure, shortened: as §1

[25] = tested on: Staphylococcus epidermidis IO 83-58; conditions: IO8358, 18 hours, 35° C., read-out: MIC
Procedure, shortened: as §1

[26] = tested on: Staphylococcus epidermidis VGH 84-40; conditions: VGH8440, 18 hours, 35° C., read-out: MIC
Procedure, shortened: as §1

[27] = tested on: Streptococcus faecalis ATTC 29212; conditions: Enterococcus faecalis, ATTC29212, 18 hours, 35° C., read-out: MIC
Procedure, shortened: as §1

[28] = tested on: Streptococcus faecalis VGH 84-65; conditions: 35° C.
Procedure, shortened: as §1

Escherichia coli LL 311 = conditions: Escherichia coli, LL311, 18 h, 35° C., read-out: MIC
Procedure, shortened: as §1

[29] = tested on: Serratia marcescens VGH 84-30; conditions: Serratia marcescens, VGH8430, 18 h, 35° C., read-out: MIC
Procedure, shortened: as §1

[30] = tested on: Streptococcus faecalis UCI 85-19; conditions: Enterococcus faecalis, UCI8519, 18 h, 35° C., read-out: MIC
Procedure, shortened: as §1

[31] = Escherichia coli, ATCC25922, 18 h, read-out: MIC
[32] = Escherichia coli, CMC8411, 18 h, read-out: MIC
[33] = Morganella morganii, CMC8437, 18 h, read-out: MIC
[34] = Pseudomonas aeruginosa, LL1244, 18 h, read-out: MIC
[35] = Pseudomonas aeruginosa, VGH844, 18 h, read-out: MIC
[36] = Serratia marcescens, K8418, 18 h, read-out: MIC
[37] = Staphylococcus aureus, ATTC29213, 18 h, read-out: MIC
[38] = Staphylococcus aureus, 18 h, read-out: MIC
[39] = Staphylococcus aureus, VGH8445, 18 h, read-out: MIC
[40] = Enterococcus faecalis, VGH8465, 18 h, read-out: MIC

Row | SMILES | MIC [1] | MIC [2] | MIC [3] | MIC [6] | MIC (Escherichia coli NAR 311) | MIC [7] | MIC [8] | MIC (Klebsiella pneumoniae AD) | MIC [9] | MIC [11] | MIC [12] | MIC [15] | MIC [17] | MIC [19] | MIC [20] | MIC [23] | MIC [24] | MIC [25] | MIC [26] | MIC [27] | also measured
1 | O=C(O)c1cn(C2CC2)c2cc(N3CCNC(c4ccsc4)C3)c(F)cc2c1=O (centres unmarked) [Example 60] | < 0.12 µg/mL | < 0.12 µg/mL | < 0.12 µg/mL | < 0.12 µg/mL | 0.25 µg/mL (≈ 0.605 µM) | < 0.12 µg/mL | < 0.12 µg/mL | < 0.12 µg/mL | < 0.12 µg/mL | < 0.12 µg/mL | < 0.12 µg/mL | < 0.12 µg/mL | < 0.12 µg/mL | < 0.12 µg/mL | < 0.12 µg/mL | < 0.12 µg/mL | < 0.12 µg/mL | < 0.12 µg/mL | < 0.12 µg/mL | < 0.12 µg/mL | MIC ([4]; 18 hours): < 0.12 µg/mL; MIC ([5]; 18 hours): < 0.12 µg/mL; MIC ([10]; 18 hours): < 0.12 µg/mL; MIC ([13]; 18 hours): 4 µg/mL (≈ 9.67 µM); MIC ([14]; 18 hours): 0.5 µg/mL (≈ 1.21 µM); MIC ([16]; 18 hours): < 0.12 µg/mL; MIC ([18]; 18 hours): < 0.12 µg/mL; MIC ([21]; 18 hours): < 0.12 µg/mL; MIC ([22]; 18 hours): < 0.12 µg/mL; MIC ([28]; 18 hours): < 0.12 µg/mL
2 | CCn1cc(C(=O)O)c(=O)c2cc(F)c(N3CCN(C)CC3)c(F)c21 [Example 61, 1-Ethyl-6,8-difluoro=1,4-dihydro-7-(4-methyl-1-piperazinyl)-4-oxo-3-quinolinecarboxylic acid] | 0.03 µg/mL (≈ 0.0854 µM) | 0.03 µg/mL (≈ 0.0854 µM) | 0.03 µg/mL (≈ 0.0854 µM) | < 0.015 µg/mL | 0.5 µg/mL (≈ 1.42 µM) | 0.03 µg/mL (≈ 0.0854 µM) | 0.06 µg/mL (≈ 0.171 µM) | 0.06 µg/mL (≈ 0.171 µM) | 0.06 µg/mL (≈ 0.171 µM) | 0.06 µg/mL (≈ 0.171 µM) | 0.12 µg/mL (≈ 0.342 µM) | 0.12 µg/mL (≈ 0.342 µM) | 2 µg/mL (≈ 5.69 µM) | 0.12 µg/mL (≈ 0.342 µM) | 0.5 µg/mL (≈ 1.42 µM) | 0.25 µg/mL (≈ 0.712 µM) | 0.25 µg/mL (≈ 0.712 µM) | 0.25 µg/mL (≈ 0.712 µM) | 0.25 µg/mL (≈ 0.712 µM) | 2 µg/mL (≈ 5.69 µM) | MIC [4, 31]: < 0.015 µg/mL; MIC [5, 32]: 0.03 µg/mL (≈ 0.0854 µM); MIC [10, 33]: 0.06 µg/mL (≈ 0.171 µM); MIC [13, 34]: 4 µg/mL (≈ 11.4 µM); MIC [14, 35]: 0.5 µg/mL (≈ 1.42 µM); MIC [16, 36]: 0.06 µg/mL (≈ 0.171 µM); MIC [18, 37]: 0.5 µg/mL (≈ 1.42 µM); MIC [21, 38]: 0.25 µg/mL (≈ 0.712 µM); MIC [22, 39]: 0.12 µg/mL (≈ 0.342 µM); MIC [28, 40]: 2 µg/mL (≈ 5.69 µM)
3 | CCCCCCCCCCCCOCC1CN(c2cc3c(cc2F)c(=O)c(C(=O)O)cn3CC)CCN1 (centres unmarked) [Example 74, 7-[3-[(Dodecyloxy)methyl]-1-piperazinyl]-1-ethyl-6-fluoro-1,4-dihydro-4-oxo-3-quinolinecarboxylic acid] | > 256 µg/mL | > 256 µg/mL | > 256 µg/mL | > 256 µg/mL | > 256 µg/mL | > 256 µg/mL | > 256 µg/mL | > 256 µg/mL | > 256 µg/mL | > 256 µg/mL | > 256 µg/mL | > 256 µg/mL | 64 µg/mL (≈ 124 µM) | 32 µg/mL (≈ 61.8 µM) | 128 µg/mL (≈ 247 µM) | 128 µg/mL (≈ 247 µM) | 128 µg/mL (≈ 247 µM) | 128 µg/mL (≈ 247 µM) | 64 µg/mL (≈ 124 µM) | 128 µg/mL (≈ 247 µM) | MIC [4, 31]: > 256 µg/mL; MIC [5, 32]: > 256 µg/mL; MIC [10, 33]: > 256 µg/mL; MIC [13, 34]: > 256 µg/mL; MIC [14, 35]: > 256 µg/mL; MIC [16, 36]: > 256 µg/mL; MIC [18, 37]: 128 µg/mL (≈ 247 µM); MIC [21, 38]: 128 µg/mL (≈ 247 µM); MIC [22, 39]: 128 µg/mL (≈ 247 µM); MIC [28, 40]: 128 µg/mL (≈ 247 µM)
4 | O=C(O)c1cn(-c2ccc(F)cc2)c2cc(N3CCNC(COc4ccccc4)C3)c(F)cc2c1=O (centres unmarked) [Example 84, 1-(4-Fluorophenvl)-6-fluoro-1,4-dihydro-4-oxo-7-[3-(phenoxymethyl)-1-piperazinyl]-3-quinolinecarboxylic acid] | – | – | – | – | – | – | – | – | – | – | 1 µg/mL (≈ 2.03 µM) | – | – | – | – | – | – | – | – | – | MIC [4, 31]: 1 µg/mL (≈ 2.03 µM); MIC [5, 32]: 1 µg/mL (≈ 2.03 µM); MIC (Escherichia coli LL 311): 1 µg/mL (≈ 2.03 µM); MIC [10, 33]: 2 µg/mL (≈ 4.07 µM); MIC [13, 34]: > 128 µg/mL; MIC [14, 35]: 32 µg/mL (≈ 65.1 µM); MIC [16, 36]: 32 µg/mL (≈ 65.1 µM); MIC [29]: > 128 µg/mL; MIC [18, 37]: 1 µg/mL (≈ 2.03 µM); MIC [21, 38]: 0.25 µg/mL (≈ 0.509 µM); MIC [22, 39]: 0.25 µg/mL (≈ 0.509 µM); MIC [30]: 32 µg/mL (≈ 65.1 µM); MIC [28, 40]: 32 µg/mL (≈ 65.1 µM)
